Test results as given in the NIST ThermoML archive (doi:10.1016/j.jct.2005.03.002).

Test: xn = mol fraction of the nth substance listed
Conditions: 101.33 kPa, Liquid

CCOS(=O)(=O)[O-].CCn1cc[n+](C)c1 [1-ethyl-3-methylimidazolium ethyl sulfate] + O
mass density [kg/m3]
Conditions	278.2 K	288.2 K	298.2 K	308.2 K	318.2 K	328.2 K	338.2 K
x2 = 0	1243	1236.2	1229.6	1223	1216.2	1209.9	1203.7
x2 = 0.0503	1242.6	1235.5	1229	1222.6	1216.2	1209.8	1203.6
x2 = 0.0983	1241.6	1234.7	1227.9	1221.6	1215.1	1208.6	1202.5
x2 = 0.1495	1240.2	1233.5	1226.9	1220.5	1213.9	1207.5	1201.2
x2 = 0.1996	1239.2	1232.7	1226.2	1219.5	1213	1206.6	1200.1
x2 = 0.2505	1238.3	1231.1	1224.7	1218.3	1211.7	1205.3	1198.7
x2 = 0.2999	1236.7	1229.8	1223.1	1216.6	1210.1	1203.8	1198
x2 = 0.3504	1235.6	1228.5	1221.8	1215.3	1208.7	1202.4	1196.1
x2 = 0.3987	1233.4	1226.6	1220.1	1213.4	1206.8	1200.3	1194.3
x2 = 0.4505	1231.1	1224.4	1218	1211.2	1204.6	1198.6	1192.2
x2 = 0.4994	1228.7	1222	1215.4	1208.8	1202.2	1196.2	1189.9
x2 = 0.5495	1225.8	1219.1	1212.3	1205.8	1199.4	1193	1186.8
x2 = 0.6	1222.1	1215.3	1208.7	1202	1195.6	1189.2	1183
x2 = 0.6504	1217.2	1210.7	1203.8	1197.4	1190.8	1184.4	1178
x2 = 0.6999	1211.5	1204.7	1198.3	1191.5	1184.7	1178.2	1171.8
x2 = 0.7502	1203.2	1196.8	1190	1183.3	1176.6	1170	1163.8
x2 = 0.8	1192.4	1185.7	1178.9	1172.4	1165.6	1159.1	1153.1
x2 = 0.8499	1176.4	1169.9	1163.4	1156.8	1150	1143.9	1137.8
x2 = 0.9	1149.2	1142.9	1136.6	1130.3	1124.4	1117.8	1112.4
x2 = 0.94	1107.2	1101.8	1096.4	1090.8	–	–	–
